The values below come from patent US12565501B2, “Muscarinic acetylcholine M1 receptor antagonists” (Contineum Therapeutics, Inc., priority 2019, dated 2026).

In this test the target is T1, human M1 receptor (Homo sapiens, UniProt P11229).
T1 sequence (P11229 1-460): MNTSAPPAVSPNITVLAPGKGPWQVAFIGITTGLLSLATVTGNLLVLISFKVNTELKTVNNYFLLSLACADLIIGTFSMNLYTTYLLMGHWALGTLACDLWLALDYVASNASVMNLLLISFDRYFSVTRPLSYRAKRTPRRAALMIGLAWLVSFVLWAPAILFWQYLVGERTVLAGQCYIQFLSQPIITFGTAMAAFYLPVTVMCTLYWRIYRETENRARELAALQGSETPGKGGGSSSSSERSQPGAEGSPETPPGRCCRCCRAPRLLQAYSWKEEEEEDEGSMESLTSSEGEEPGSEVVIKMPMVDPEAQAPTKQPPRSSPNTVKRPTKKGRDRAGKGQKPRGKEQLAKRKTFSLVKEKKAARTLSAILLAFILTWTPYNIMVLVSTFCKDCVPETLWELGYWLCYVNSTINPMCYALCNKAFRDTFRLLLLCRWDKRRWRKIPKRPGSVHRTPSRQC
The test is described as follows: In vitro functional assay of muscarinic acetylcholine receptor activity (aequorin calcium flux, reversal of EC80 acetylcholine response). Format: cell-based. The conditions noted are these: CHO-K1 cells stably expressing human M1 receptor with aequorin; acetylcholine at EC80; calcium flux (luminescence); read-out: M1 IC50. In outline:
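Antagonist mode: compound (final 0.1% DMSO) and coelenterazine-loaded M1/aequorin CHO-K1 cells incubated 30 min in the dark before EC80 acetylcholine addition. Calcium flash integrated as 40 s luminescence AUC; IC50 derived from dose-response curves.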
On the technique in general: Calcium assays in cells follow changes in intracellular calcium, usually with a dye or a luminescent sensor.

For `COc1cc(C(F)(F)CCC(=O)N2CC3CCC(C2)N3c2ccnc(C#N)c2)ccn1` [Example 156, 4-(3-(4,4-difluoro-4-(2-methoxypyridin-4-yl)butanoyl)-3,8-diazabicyclo[3.2.1]octan-8-yl)picolinonitrile], the IC50 (as a rule, the concentration needed to halve the response being measured) is 0.1 to 1 µM. Regarding `COc1cc(C(F)(F)CCC(=O)N2CC3CCC(C2)N3c2ccc(C)nn2)ccn1` [Example 157, 4,4-difluoro-4-(2-methoxypyridin-4-yl)-1-(8-(6-methylpyridazin-3-yl)-3,8-diazabicyclo[3.2.1]octan-3-yl)butan-1-one], the IC50 is 0.1 to 1 µM. With `COc1ncccc1C(F)(F)CCC(=O)N1CC2CCC(C1)N2c1ccc(C#N)cn1` [Example 159, 6-(3-(4,4-difluoro-4-(2-methoxypyridin-3-yl)butanoyl)-3,8-diazabicyclo[3.2.1]octan-8-yl)nicotinonitrile] the figure was less than 0.01 µM. For `COc1cncc(C(F)(F)CCC(=O)N2CC3CCC(C2)N3c2ccc(C#N)cn2)c1` [Example 160, 6-(3-(4,4-difluoro-4-(5-methoxypyridin-3-yl)butanoyl)-3,8-diazabicyclo[3.2.1]octan-8-yl)nicotinonitrile] the value was less than 0.01 µM.

As for `COc1ccncc1C(F)(F)CCC(=O)N1CC2CCC(C1)N2c1ccc(C#N)cn1` [Example 161, 6-(3-(4,4-difluoro-4-(4-methoxypyridin-3-yl)butanoyl)-3,8-diazabicyclo[3.2.1]octan-8-yl)nicotinonitrile], the IC50 was less than 0.01 µM. For `N#Cc1ccc(N2C3CCC2CN(C(=O)CCC(F)(F)c2cccc4ncnn24)C3)nc1` [Example 163, 6-(3-(4-([1,2,4]triazolo[1,5-a]pyridin-5-yl)-4,4-difluorobutanoyl)-3,8-diazabicyclo[3.2.1]octan-8-yl)nicotinonitrile] the value was less than 0.01 µM; for `COc1cc(C2(CCC(=O)N3CC4CCC(C3)N4c3ccc(C#N)cn3)CCC2)ccn1` [Example 164, 6-(3-(3-(1-(2-methoxypyridin-4-yl)cyclobutyl)propanoyl)-3,8-diazabicyclo[3.2.1]octan-8-yl)nicotinonitrile], less than 0.01 µM. Consider `[2H]C([2H])([2H])Oc1cc(C(F)(F)CCC(=O)N2CC3CCC(C2)N3c2ccc(C#N)cn2)ccn1` [Example 165, 6-(3-(4,4-difluoro-4-(2-(methoxy-d3)pyridin-4-yl)butanoyl)-3,8-diazabicyclo[3.2.1]octan-8-yl)nicotinonitrile], for which the IC50 is 0.01 to 0.1 µM. Take `C[C@@H](OCC(=O)N1C[C@H]2CC[C@@H](C1)N2c1ccc(C#N)cn1)c1ccccc1` [Example 178, 6-(3-(2-((R)-1-phenylethoxy)acetyl)-3,8-diazabicyclo[3.2.1]octan-8-yl)nicotinonitrile]: the IC50 is 0.1 to 1 µM. For `C[C@H](OCC(=O)N1CC2CCC(C1)N2c1ccc(C#N)cn1)c1ccccc1` [Example 179, 6-(3-(2-((S)-1-phenylethoxy)acetyl)-3,8-diazabicyclo[3.2.1]octan-8-yl)nicotinonitrile] the value was 0.1 to 1 µM; for `N#Cc1ccc(N2C3CCC2CN(C(=O)COC2(c4ccccc4)CC2)C3)nc1` [Example 180, 6-(3-(2-(1-phenylcyclopropoxy)acetyl)-3,8-diazabicyclo[3.2.1]octan-8-yl)nicotinonitrile], 0.01 to 0.1 µM; for `N#Cc1ccc(N2C3CCC2CN(C(=O)COC2(c4ccccc4Br)CC2)C3)nc1` [Example 181, 6-(3-(2-(1-(2-bromophenyl)cyclopropoxy)acetyl)-3,8-diazabicyclo[3.2.1]octan-8-yl)nicotinonitrile], 0.01 to 0.1 µM. For `C[C@H](OCC(=O)N1C[C@H]2CC[C@@H](C1)N2c1ccc(C#N)cn1)c1ccc(F)c(F)c1` [Example 182, 6-(3-(2-((S)-1-(3,4-difluorophenyl)ethoxy)acetyl)-3,8-diazabicyclo[3.2.1]octan-8-yl)nicotinonitrile] the value was 0.01 to 0.1 µM; for `C[C@H](COCC(=O)N1CC2CCC(C1)N2c1ccc(C#N)cn1)c1ccccc1` [Example 186, 6-(3-(2-((S)-2-phenylpropoxy)acetyl)-3,8-diazabicyclo[3.2.1]octan-8-yl)nicotinonitrile], 1 to 10 µM.

Turning to `N#Cc1ccc(N2C3CCC2CN(C(=O)COCC2(c4ccccc4)CC2)C3)nc1` [Example 187, 6-(3-(2-((1-phenylcyclopropyl)methoxy)acetyl)-3,8-diazabicyclo[3.2.1]octan-8-yl)nicotinonitrile], the IC50 fell in the range of 0.1 to 1 µM. With `N#Cc1ccc(N2C3CCC2CN(C(=O)COCC2(c4ccc(F)cc4)CC2)C3)nc1` [Example 188, 6-(3-(2-((1-(4-fluorophenyl)cyclopropyl)methoxy)acetyl)-3,8-diazabicyclo[3.2.1]octan-8-yl)nicotinonitrile] the figure was 1 to 10 µM; with `N#Cc1ccc(N2C3CCC2CN(C(=O)COCC2(c4ccncc4)CC2)C3)nc1` [Example 189, 6-(3-(2-((1-(pyridin-4-yl)cyclopropyl)methoxy)acetyl)-3,8-diazabicyclo[3.2.1]octan-8-yl)nicotinonitrile], 1 to 10 µM; with `N#Cc1ccc(N2C3CCC2CN(C(=O)COC2(c4ccc(F)cc4)CC2)C3)nc1` [Example 205, 6-(3-(2-(1-(4-fluorophenyl)cyclopropoxy)acetyl)-3,8-diazabicyclo[3.2.1]octan-8-yl)nicotinonitrile], 0.1 to 1 µM.

Regarding `N#Cc1ccc(N2C3CCC2CN(C(=O)COC2(c4cccc(F)c4)CC2)C3)nc1` [Example 206, 6-(3-(2-(1-(3-fluorophenyl)cyclopropoxy)acetyl)-3,8-diazabicyclo[3.2.1]octan-8-yl)nicotinonitrile], the IC50 is 0.1 to 1 µM. With `N#Cc1ccc(N2C3CCC2CN(C(=O)COC2(c4ccccc4F)CC2)C3)nc1` [Example 207, 6-(3-(2-(1-(2-fluorophenyl)cyclopropoxy)acetyl)-3,8-diazabicyclo[3.2.1]octan-8-yl)nicotinonitrile] the figure was 0.01 to 0.1 µM; with `N#Cc1ccc(N2C3CCC2CN(C(=O)COC2(c4ccc(Br)cc4)CC2)C3)nc1` [Example 208, 6-(3-(2-(1-(4-bromophenyl)cyclopropoxy)acetyl)-3,8-diazabicyclo[3.2.1]octan-8-yl)nicotinonitrile], 0.1 to 1 µM. With `N#Cc1ccc(N2C3CCC2CN(C(=O)COC2(c4cccc(Br)c4)CC2)C3)nc1` [Example 209, 6-(3-(2-(1-(3-bromophenyl)cyclopropoxy)acetyl)-3,8-diazabicyclo[3.2.1]octan-8-yl)nicotinonitrile] the figure was 0.1 to 1 µM. For `N#Cc1ccc(N2C3CCC2CN(C(=O)COC2(c4cccc(F)c4F)CC2)C3)nc1` [Example 211, 6-(3-(2-(1-(2,3-difluorophenyl)cyclopropoxy)acetyl)-3,8-diazabicyclo[3.2.1]octan-8-yl)nicotinonitrile] the value was 0.01 to 0.1 µM; for `N#Cc1ccc(N2C3CCC2CN(C(=O)COC2(c4cc(F)ccc4F)CC2)C3)nc1` [Example 213, 6-(3-(2-(1-(2,5-difluorophenyl)cyclopropoxy)acetyl)-3,8-diazabicyclo[3.2.1]octan-8-yl)nicotinonitrile], 0.01 to 0.1 µM.

Consider `N#Cc1ccc(N2C3CCC2CN(C(=O)COC2(c4ccc(Cl)c(Cl)c4)CC2)C3)nc1` [Example 214, 6-(3-(2-(1-(3,4-dichlorophenyl)cyclopropoxy)acetyl)-3,8-diazabicyclo[3.2.1]octan-8-yl)nicotinonitrile], for which the IC50 lay within 0.01 to 0.1 µM. As for `N#Cc1ccc(N2C3CCC2CN(C(=O)COC2(c4ccc(F)c(Br)c4)CC2)C3)nc1` [Example 215, 6-(3-(2-(1-(3-bromo-4-fluorophenyl)cyclopropoxy)acetyl)-3,8-diazabicyclo[3.2.1]octan-8-yl)nicotinonitrile], the IC50 fell in the range of 0.01 to 0.1 µM. With `N#Cc1ccc(N2C3CCC2CN(C(=O)COC2(c4cc(F)cc(Br)c4)CC2)C3)nc1` [Example 217, 6-(3-(2-(1-(3-bromo-5-fluorophenyl)cyclopropoxy)acetyl)-3,8-diazabicyclo[3.2.1]octan-8-yl)nicotinonitrile] the figure was 0.01 to 0.1 µM.

In the case of `N#Cc1ccc(N2C3CCC2CN(C(=O)COC2(c4cccc(Br)c4F)CC2)C3)nc1` [Example 219, 6-(3-(2-(1-(3-bromo-2-fluorophenyl)cyclopropoxy)acetyl)-3,8-diazabicyclo[3.2.1]octan-8-yl)nicotinonitrile], the IC50 was in the range of 0.01 to 0.1 µM.

On to `N#Cc1ccc(N2C3CCC2CN(C(=O)COC2(c4cc(F)ccc4Br)CC2)C3)nc1` [Example 220, 6-(3-(2-(1-(2-bromo-5-fluorophenyl)cyclopropoxy)acetyl)-3,8-diazabicyclo[3.2.1]-8-yl)nicotinonitrile], for which the IC50 is less than 0.01 µM. With `N#Cc1ccc(N2C3CCC2CN(C(=O)COC2(c4ccc(F)cc4Br)CC2)C3)nc1` [Example 221, 6-(3-(2-(1-(2-bromo-4-fluorophenyl)cyclopropoxy)acetyl)-3,8-diazabicyclo[3.2.1]octan-8-yl)nicotinonitrile] the figure was 0.01 to 0.1 µM; with `COc1ccc(C2(OCC(=O)N3CC4CCC(C3)N4c3ccc(C#N)cn3)CC2)cc1F` [Example 222, 6-(3-(2-(1-(3-fluoro-4-methoxyphenyl)cyclopropoxy)acetyl)-3,8-diazabicyclo[3.2.1]octan-8-yl)nicotinonitrile], 1 to 10 µM; with `COc1ccc(C2(OCC(=O)N3CC4CCC(C3)N4c3ccc(C#N)cn3)CC2)c(F)c1` [Example 223, 6-(3-(2-(1-(2-fluoro-4-methoxyphenyl)cyclopropoxy)acetyl)-3,8-diazabicyclo[3.2.1]octan-8-yl)nicotinonitrile], greater than 1 µM.
